Read-outs that look alike come from different tables or passages of the source.
What was measured:
[1] = Tissue distribution study in rats; type: in vivo, SD rats; settings: male, Sprague-Dawley, rat, single oral dose 100 mg/kg; for Kp: read-out: Kp (tissue plasma distribution coefficient)
Source text: Compound 25a was extensively distributed in most tissues of rats, and the drug concentration was high in organs with abundant hemoperfusions, such as the kidney, heart, lung, and spleen, among which the drug concentration was the highest in the kidney, with a tissue plasma distribution coefficient Kp = 1.67. The high kidney distribution is a good characteristic for diuretics targeting UTs, because the UTs in the renal inner medullary collecting duct (UT-A1/3) and renal vasa recta microvessels (UT-B) play vital roles in urea recycling and urine concentration. […] Thus, the potential risk of 25a for the central nervous system and male reproductive system is probably low.
Twenty-four SD rats were randomly divided into six groups and received a single oral dose of 25a at 100 mg/kg. Blood and tissues samples (i.e., brain, heart, lungs, liver, spleen, kidneys, muscle, skin, fat, testes, and leg bones) were collected at 0.25 h, 0.5 h, 2 h, 6 h, 12 h, and 24 h after dosing. The tissue samples were rinsed with cold saline and dried on filter papers, weighed, and homogenized with fivefold volumes of ultrapure water using a homogenizer (T10, IKA, Staufen, Germany) on ice. The right shin bone of the rat was crushed and soaked in methanol for 12 h at 4 °C. Tissue homogenate or bone soak solution was prepared and analyzed using the above method. Samples were stored at −80 °C until analysis.

[2] = Plasma protein binding by equilibrium dialysis, human plasma; type: in vitro ADME; settings: human, plasma
Description: (§1) The plasma protein binding (PPB) and blood plasma ratio (BPR) are crucial parameters influencing the drug distribution and elimination in plasma. The PPB profile of 25a was evaluated by equilibrium dialysis, a classic method to assess the interactions of small molecules with proteins. The PPB of 25a was tested at 50, 500, and 2500 ng/mL (Table 7). […] When considering the allometric scaling of PK parameters, the species difference of protein binding between humans and rats should be considered.
(§2) The plasma protein binding (PPB) ratio of 25a was assessed via equilibrium dialysis in SD rats and human plasma. Four hundred microliters of plasma containing 50, 500, or 2500 ng/mL 25a were loaded into the dialysis bags (plasma side), and the bags were placed into tubes containing 4 mL of the dialysis buffer (buffer side). The tubes were then rotated at approximately 100 rpm in a humidified incubator with 5% CO2 at 37 ± 1 °C for 5 h.
(§3) After the 5 h dialysis, aliquots of 50 μL samples were taken from both the buffer and the plasma sides. An equal volume of the opposite blank matrix (buffer or plasma) was added to each sample to reach a final volume of 100 μL with a volume ratio of plasma to dialysis buffer at 1:1 (v/v). All samples were further processed by adding 600 μL of stop solution (containing 10 ng/mL IS) to precipitate protein for LC–MS/MS analysis. The PPB ratio (%) was calculated by PPB% = 100% × (1 − Conc.buffer side/Conc.plasma side).

plasma protein = experiment: as above; type: in vitro ADME; settings: human plasma, 50, 500, 2500 ng/mL
Description: as §1, §2, §3

rats = tested on: rats; design: method as in PMID 34601246; settings: orally administered; cited from earlier work
in vivo = settings: male, Sprague-Dawley, rat, po
[3] = plasma (tissue distribution study)

Work on `CC(=O)Nc1ccc(NC(=O)c2ccc(C(C)=O)o2)cc1` [Compound 25a, N-(4-acetamidophenyl)-5-acetylfuran-2-carboxamide] yielded an AUC(0-t) ([1]; bone) of 2680 ± 660 ng·h/mL, a Cmax ([1]; bone) of 413 ± 150 ng/mL and a Tmax ([1]; bone) of 1.1 ± 0.9 h. The half-life ([1]; bone) was 3.7 ± 0.5 h, the Kp ([1]; bone) was 0.4 and the AUC(0-t) ([1]; brain) was 1390 ± 602 ng·h/mL. The Cmax ([1]; brain) was 820 ± 769 ng/mL, the Tmax ([1]; brain) was 0.9 ± 0.6 h and the half-life ([1]; brain) was 6.1 ± 2.8 h. It also gave a Kp ([1]; brain) of 0.27, an AUC(0-t) ([1]; fat) of 1570 ± 650 ng·h/mL and a Cmax ([1]; fat) of 333 ± 238 ng/mL. For the same molecule, the Tmax ([1]; fat) was 1.3 ± 0.8 h, the half-life ([1]; fat) was 6.6 ± 4.2 h and the Kp ([1]; fat) was 0.31. For the same molecule, the AUC(0-t) ([1]; heart) was 4160 ± 1010 ng·h/mL, the Cmax ([1]; heart) was 631 ± 64.8 ng/mL and the Tmax ([1]; heart) was 0.8 ± 0.7 h. For the same molecule, the half-life ([1]; heart) was 3.5 ± 0.6 h, the Kp ([1]; heart) was 0.8 and the AUC(0-t) ([1]; kidney) was 8670 ± 1510 ng·h/mL. It also gave a Cmax ([1]; kidney) of 1480 ± 473 ng/mL, a Tmax ([1]; kidney) of 0.4 ± 0.1 h and a half-life ([1]; kidney) of 4.2 ± 0.8 h. For the same molecule, the Kp ([1]; kidney) was 1.67, the AUC(0-t) ([1]; liver) was 1650 ± 1000 ng·h/mL and the Cmax ([1]; liver) was 183 ± 144 ng/mL. It also gave a Tmax ([1]; liver) of 3.6 ± 2.5 h, a half-life ([1]; liver) of 6.3 ± 3.4 h and a Kp ([1]; liver) of 0.22. For the same molecule, the AUC(0-t) ([1]; lung) was 3720 ± 880 ng·h/mL, the Cmax ([1]; lung) was 1130 ± 1010 ng/mL and the Tmax ([1]; lung) was 0.4 ± 0.1 h. The half-life ([1]; lung) was 3.6 ± 0.7 h, the Kp ([1]; lung) was 0.72 and the AUC(0-t) ([1]; muscle) was 4000 ± 790 ng·h/mL. The Cmax ([1]; muscle) was 728 ± 216 ng/mL, the Tmax ([1]; muscle) was 0.8 ± 0.7 h and the half-life ([1]; muscle) was 3.2 ± 0.4 h. For the same molecule, the Kp ([1]; muscle) was 0.79, the AUC(0-t) [1, 3] was 5200 ± 1590 ng·h/mL and the Cmax [1, 3] was 1120 ± 132 ng/mL. For the same molecule, the Tmax [1, 3] was 0.3 h, the half-life [1, 3] was 5.7 ± 4.8 h and the Kp [1, 3] was 1. It also gave an AUC(0-t) ([1]; skin) of 4830 ± 1080 ng·h/mL, a Cmax ([1]; skin) of 701 ± 124 ng/mL and a Tmax ([1]; skin) of 2.6 ± 2.1 h. The half-life ([1]; skin) was 3.6 ± 0.5 h, the Kp ([1]; skin) was 0.93 and the AUC(0-t) ([1]; spleen) was 4270 ± 2630 ng·h/mL. The Cmax ([1]; spleen) was 934 ± 793 ng/mL, the Tmax ([1]; spleen) was 0.9 ± 0.6 h and the half-life ([1]; spleen) was 4.5 ± 0.8 h. For the same molecule, the Kp ([1]; spleen) was 0.82, the AUC(0-t) ([1]; testis) was 338 ± 144 ng·h/mL and the Cmax ([1]; testis) was 50.6 ± 26.4 ng/mL. It also gave a Tmax ([1]; testis) of 6 h, a Kp ([1]; testis) of 0.06 and a fraction unbound at 5 h, 50 ng/mL ([2]; human plasma, 50 ng/mL) of 0.559. For the same molecule, the fraction unbound at 5 h, 500 ng/mL ([2]; human plasma, 500 ng/mL) was 0.612, the fraction unbound at 5 h, 2500 ng/mL ([2]; human plasma, 2500 ng/mL) was 0.595 and the fraction unbound at 5 h ([2]; human plasma, 50, 500, 2500 ng/mL, read-out: mean plasma protein binding (PPB) (converted)) was roughly 0.6. The “mean plasma protein binding (PPB)” value (plasma protein) was 38.8%–44.1%, the “Na+, K+, and Cl− levels in the blood” value (rats) was “without disturbing” and the “duration of urea-selective diuresis” value (rats) was 8 h. The “urine output vs vehicle control” value (rats) was “three times higher urine output than vehicle control”, the MRT (in vivo) was roughly 5.4 h and the MRT (in vivo; 50 mg/kg) was 5.4 ± 0.8 h. For the same molecule, the AUC(0-t) (in vivo; 100 mg/kg) was 6920 ± 377 ng·h/mL.

Reference: article PMC9027532, “Preclinical Pharmacokinetic Studies of a Novel Diuretic Inhibiting Urea Transporters” (Molecules, 2022)
